How the values were obtained:
insulin receptor A = insulin receptor A (Homo sapiens, UniProt P06213); assay: Insulin receptor affinity; type: binding; conditions: relative to affinity of human insulin for insulin receptor A (100%)
[1] = PK studies: intravenous and subcutaneous administration to SD rats, insulin-Fc concentrations by immuno-assay; type: in vivo; conditions: for PK rat sc [T½ (h)] Mean Value: subcutaneous
Description: Insulin-Fc conjugates were tested in vivo by intravenous and subcutaneous administration to SD rats. Blood samples were collected and the insulin-Fc concentrations were measured by immuno-assay.

Sprague-Dawley rats = assay: PD studies: blood glucose after subcutaneous dosing; type: in vivo; conditions: sc
Description: The pharmacodynamic effect of the Insulin Fc conjugates of the examples were investigated in normal male Sprague-Dawley rats weighing approx. 350 g at study start.
Animals had free access to food and water during the experiment period. They were dosed subcutaneously in the neck region with a dose of 30 nmol/kg (unless otherwise stated in the figures below). Blood samples for blood glucose and plasma insulin analysis were collected from the tongue veins up to 10 days post dosing. Blood glucose was measured using Biosen S Line (EKF).

isolated rat adipocytes = assay: Insulin-stimulated lipogenesis; type: cell-based; conditions: 1% HSA; relative to the activity of human insulin (100%)
Description: Insulin-stimulated lipogenesis was measured in isolated rat adipocytes in presence of 1% HSA as described in Moody A J, Stan M A, Stan M, Gliemann J. A Simple Free Fat Cell Bioassay for Insulin. Hormone And Metabolic Research. 1974; 6(1):12-6, see results in Table 6.

[2] = dose 30 nmol/kg, time 0.041667 days
[3] = dose 30 nmol/kg, time 0.125 days
[4] = dose 30 nmol/kg, time 0.291667 days

Sequence of insulin receptor A (P06213 28-1370 isoform P06213-2 limits assumed): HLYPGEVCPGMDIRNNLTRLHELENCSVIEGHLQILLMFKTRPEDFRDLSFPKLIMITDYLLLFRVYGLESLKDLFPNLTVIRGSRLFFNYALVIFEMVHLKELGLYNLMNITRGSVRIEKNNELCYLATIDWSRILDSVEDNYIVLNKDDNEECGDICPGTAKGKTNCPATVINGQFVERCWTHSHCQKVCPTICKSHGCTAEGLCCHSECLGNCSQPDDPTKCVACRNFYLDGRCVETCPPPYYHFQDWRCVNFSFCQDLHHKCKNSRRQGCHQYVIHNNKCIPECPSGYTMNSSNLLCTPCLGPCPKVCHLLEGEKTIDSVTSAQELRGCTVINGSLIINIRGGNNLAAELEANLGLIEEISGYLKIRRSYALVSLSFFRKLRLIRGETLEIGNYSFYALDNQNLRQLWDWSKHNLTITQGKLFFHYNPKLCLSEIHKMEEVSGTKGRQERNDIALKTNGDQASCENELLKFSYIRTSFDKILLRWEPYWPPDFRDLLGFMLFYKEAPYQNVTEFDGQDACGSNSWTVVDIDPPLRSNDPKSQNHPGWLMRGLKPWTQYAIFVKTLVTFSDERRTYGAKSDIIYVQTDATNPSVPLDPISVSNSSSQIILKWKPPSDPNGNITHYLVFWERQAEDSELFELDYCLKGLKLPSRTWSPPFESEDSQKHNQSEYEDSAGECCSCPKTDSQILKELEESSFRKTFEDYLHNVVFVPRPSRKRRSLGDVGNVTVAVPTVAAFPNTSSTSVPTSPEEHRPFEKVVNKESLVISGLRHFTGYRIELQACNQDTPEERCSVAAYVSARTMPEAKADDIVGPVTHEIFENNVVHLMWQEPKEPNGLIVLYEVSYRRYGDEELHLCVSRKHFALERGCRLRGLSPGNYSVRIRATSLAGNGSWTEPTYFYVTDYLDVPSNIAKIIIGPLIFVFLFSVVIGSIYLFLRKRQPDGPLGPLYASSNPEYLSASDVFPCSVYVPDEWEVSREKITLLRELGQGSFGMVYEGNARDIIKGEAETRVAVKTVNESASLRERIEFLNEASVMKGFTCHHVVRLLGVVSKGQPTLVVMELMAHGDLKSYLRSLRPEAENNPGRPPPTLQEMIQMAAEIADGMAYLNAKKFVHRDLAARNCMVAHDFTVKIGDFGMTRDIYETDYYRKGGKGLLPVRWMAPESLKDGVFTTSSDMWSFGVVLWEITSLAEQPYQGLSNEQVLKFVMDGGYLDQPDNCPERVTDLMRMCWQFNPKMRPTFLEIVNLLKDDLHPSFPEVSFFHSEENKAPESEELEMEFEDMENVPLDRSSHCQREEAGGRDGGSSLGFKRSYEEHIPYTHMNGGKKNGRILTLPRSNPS
Sequence of insulin receptor A (P06213 763-1382 partner limits assumed): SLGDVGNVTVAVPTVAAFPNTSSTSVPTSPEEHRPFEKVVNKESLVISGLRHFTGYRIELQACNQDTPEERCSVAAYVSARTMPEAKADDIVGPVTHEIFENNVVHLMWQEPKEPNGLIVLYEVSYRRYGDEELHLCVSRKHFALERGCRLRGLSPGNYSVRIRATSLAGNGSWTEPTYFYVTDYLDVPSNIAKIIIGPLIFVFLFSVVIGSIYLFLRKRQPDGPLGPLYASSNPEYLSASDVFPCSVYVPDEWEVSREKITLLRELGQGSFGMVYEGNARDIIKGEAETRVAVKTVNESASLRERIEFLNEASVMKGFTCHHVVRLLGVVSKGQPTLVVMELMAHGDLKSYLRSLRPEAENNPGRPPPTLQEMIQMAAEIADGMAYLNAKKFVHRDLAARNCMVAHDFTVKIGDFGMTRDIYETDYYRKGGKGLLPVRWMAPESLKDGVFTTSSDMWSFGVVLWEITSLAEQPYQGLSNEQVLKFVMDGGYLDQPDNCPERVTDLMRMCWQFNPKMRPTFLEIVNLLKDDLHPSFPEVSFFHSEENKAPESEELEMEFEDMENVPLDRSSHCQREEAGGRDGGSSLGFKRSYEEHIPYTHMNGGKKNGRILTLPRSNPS

For “(A1(N(alpha)acetyl), A14E, A21G, A22(GQAP)19, A98K^, A99P, B1(N(alpha)acetyl), B25H, B29R, desB30 human insulin)/(227A, 234A, 235K, 297E, 315Q, 384Q, des447 hIgG4-Fc(228-447))4-[bis[2-[(2-acetyl)amino]ethyl]amino]-4-oxo-butanoyl Conjugate [Example 5.27]”, the “Insulin receptor affinity [IC50 relative to HI (%)] Mean Value” (insulin receptor A) was 1.07%, the “PK rat iv [T½ (h)] Mean Value” [1] was 40.7 h and the “PK rat sc [T½ (h)] Mean Value” [1] was 50.4 h. It also gave an Average blood glucose (Sprague-Dawley rats; dose 30 nmol/kg, time 0 days) of 5.504 mM, an Average blood glucose (Sprague-Dawley rats; [2]) of 6.308 mM and an Average blood glucose (Sprague-Dawley rats; [3]) of 5.72 mM. For the same substance, the Average blood glucose (Sprague-Dawley rats; [4]) was 5.164 mM, the Average blood glucose (Sprague-Dawley rats; dose 30 nmol/kg, time 1 day) was 3.036 mM and the Average blood glucose (Sprague-Dawley rats; dose 30 nmol/kg, time 2 days) was 3.852 mM. For the same substance, the Average blood glucose (Sprague-Dawley rats; dose 30 nmol/kg, time 3 days) was 4.384 mM, the Average blood glucose (Sprague-Dawley rats; dose 30 nmol/kg, time 4 days) was 5.272 mM and the Average blood glucose (Sprague-Dawley rats; dose 30 nmol/kg, time 5 days) was 5.236 mM. The Average blood glucose (Sprague-Dawley rats; dose 30 nmol/kg, time 6 days) was 5.564 mM, the Average blood glucose (Sprague-Dawley rats; dose 30 nmol/kg, time 7 days) was 5.824 mM and the Average blood glucose (Sprague-Dawley rats; dose 30 nmol/kg, time 8 days) was 5.924 mM. It also gave an Average blood glucose (Sprague-Dawley rats; dose 30 nmol/kg, time 9 days) of 5.68 mM and an Average blood glucose (Sprague-Dawley rats; dose 30 nmol/kg, time 10 days) of 6.12 mM.
For “(A14E, A21G, A22(GQAP)18, A94G, A95Q, A96A, A97K^, A98P, B29R, desB30 human insulin)/(227A, 234A, 235K, 297E, 315Q, 384Q, des447 hIgG4-Fc(228-447))4-[bis[2-[(2-acetyl)amino]ethyl]amino]-4-oxo-butanoyl Conjugate [Example 5.26]”, the “Insulin receptor affinity [IC50 relative to HI (%)] Mean Value” (insulin receptor A) was 3.95%, the “PK rat iv [T½ (h)] Mean Value” [1] was 49.8 h and the “PK rat sc [T½ (h)] Mean Value” [1] was 53.5 h. It also gave an Average blood glucose (Sprague-Dawley rats; dose 30 nmol/kg, time 0 days) of 5.82 mM, an Average blood glucose (Sprague-Dawley rats; [2]) of 5.984 mM and an Average blood glucose (Sprague-Dawley rats; [3]) of 5.3 mM. The Average blood glucose (Sprague-Dawley rats; [4]) was 4.384 mM, the Average blood glucose (Sprague-Dawley rats; dose 30 nmol/kg, time 1 day) was 3.332 mM and the Average blood glucose (Sprague-Dawley rats; dose 30 nmol/kg, time 2 days) was 4.992 mM. It also gave an Average blood glucose (Sprague-Dawley rats; dose 30 nmol/kg, time 3 days) of 6.352 mM, an Average blood glucose (Sprague-Dawley rats; dose 30 nmol/kg, time 4 days) of 5.804 mM and an Average blood glucose (Sprague-Dawley rats; dose 30 nmol/kg, time 5 days) of 5.752 mM. For the same substance, the Average blood glucose (Sprague-Dawley rats; dose 30 nmol/kg, time 6 days) was 6.232 mM, the Average blood glucose (Sprague-Dawley rats; dose 30 nmol/kg, time 7 days) was 6.048 mM and the Average blood glucose (Sprague-Dawley rats; dose 30 nmol/kg, time 8 days) was 6.236 mM. For the same substance, the Average blood glucose (Sprague-Dawley rats; dose 30 nmol/kg, time 9 days) was 5.972 mM, the Average blood glucose (Sprague-Dawley rats; dose 30 nmol/kg, time 10 days) was 5.88 mM and the “Lipogenesis in rat adipocytes [Potency (%)] Mean Value” (isolated rat adipocytes) was 3.23%.
In the case of “(A14E, A21G, A22(GQAP)19, A98K^, A99P, B25H, B29R, desB30 human insulin)/(227A, 234A, 235K, 297E, 315Q, 384Q, des447 hIgG4-Fc(228-447))4-[bis[2-[(2-acetyl)amino]ethyl]amino]-4-oxo-butanoyl Conjugate [Example 5.15]”, the “Insulin receptor affinity [IC50 relative to HI (%)] Mean Value” (insulin receptor A) is reported as 3.68%, the “PK rat iv [T½ (h)] Mean Value” [1] is reported as 58.4 h and the “PK rat sc [T½ (h)] Mean Value” [1] is reported as 67.6 h. For the same substance, the Average blood glucose (Sprague-Dawley rats; dose 30 nmol/kg, time 0 days) was 6.748 mM, the Average blood glucose (Sprague-Dawley rats; [2]) was 6.168 mM and the Average blood glucose (Sprague-Dawley rats; [3]) was 5.052 mM. For the same substance, the Average blood glucose (Sprague-Dawley rats; [4]) was 3.292 mM, the Average blood glucose (Sprague-Dawley rats; dose 30 nmol/kg, time 1 day) was 2.524 mM and the Average blood glucose (Sprague-Dawley rats; dose 30 nmol/kg, time 2 days) was 2.752 mM. It also gave an Average blood glucose (Sprague-Dawley rats; dose 30 nmol/kg, time 3 days) of 4.116 mM, an Average blood glucose (Sprague-Dawley rats; dose 30 nmol/kg, time 4 days) of 5.744 mM and an Average blood glucose (Sprague-Dawley rats; dose 30 nmol/kg, time 6 days) of 6.32 mM. The Average blood glucose (Sprague-Dawley rats; dose 30 nmol/kg, time 7 days) was 6.516 mM, the Average blood glucose (Sprague-Dawley rats; dose 30 nmol/kg, time 8 days) was 5.904 mM and the “Lipogenesis in rat adipocytes [Potency (%)] Mean Value” (isolated rat adipocytes) was 3.68%.
For “A14E, A21G, A22(GQEP)19, A98K^, A99P, B3Q, B25H, B29R, desB30 human insulin/(227A, 234A, 235K, 297E, 315Q, 384Q, des447 hIgG4-Fc(228-447))4-[bis[2-[(2-acetyl)amino]ethyl]amino]-4-oxo-butanoyl Conjugate [Example 5.2]”, the “Insulin receptor affinity [IC50 relative to HI (%)] Mean Value” (insulin receptor A) was 6.10%, the Average blood glucose (Sprague-Dawley rats; dose 30 nmol/kg, time 0 days) was 6.608 mM and the Average blood glucose (Sprague-Dawley rats; [2]) was 6.196 mM. For the same substance, the Average blood glucose (Sprague-Dawley rats; [3]) was 5.328 mM, the Average blood glucose (Sprague-Dawley rats; [4]) was 4.48 mM and the Average blood glucose (Sprague-Dawley rats; dose 30 nmol/kg, time 1 day) was 2.7 mM. It also gave an Average blood glucose (Sprague-Dawley rats; dose 30 nmol/kg, time 2 days) of 2.66 mM, an Average blood glucose (Sprague-Dawley rats; dose 30 nmol/kg, time 3 days) of 3.08 mM and an Average blood glucose (Sprague-Dawley rats; dose 30 nmol/kg, time 4 days) of 5.156 mM. For the same substance, the Average blood glucose (Sprague-Dawley rats; dose 30 nmol/kg, time 6 days) was 6.232 mM, the Average blood glucose (Sprague-Dawley rats; dose 30 nmol/kg, time 7 days) was 6.092 mM and the Average blood glucose (Sprague-Dawley rats; dose 30 nmol/kg, time 8 days) was 5.972 mM. The “Lipogenesis in rat adipocytes [Potency (%)] Mean Value” (isolated rat adipocytes) was 3.57%.
In the case of “A14E, A21Q, A22(G)18, A40K^, B25H, B29R, desB30 human insulin/(227A, 234A, 235K hIgG4-Fc(228-447))4-[bis[2-[(2-acetyl)amino]ethyl]amino]-4-oxo-butanoyl Conjugate [Example 5.21]”, the “Insulin receptor affinity [IC50 relative to HI (%)] Mean Value” (insulin receptor A) is reported as 2.10%, the Average blood glucose (Sprague-Dawley rats; dose 300 nmol/kg, time 0 days) is reported as 5.254 mM and the Average blood glucose (Sprague-Dawley rats; dose 300 nmol/kg, time 0.006944 days) is reported as 5.972 mM. For the same substance, the Average blood glucose (Sprague-Dawley rats; dose 300 nmol/kg, time 0.041667 days) was 4.224 mM, the Average blood glucose (Sprague-Dawley rats; dose 300 nmol/kg, time 0.125 days) was 3.238 mM and the Average blood glucose (Sprague-Dawley rats; dose 300 nmol/kg, time 0.208333 days) was 2.842 mM. For the same substance, the Average blood glucose (Sprague-Dawley rats; dose 300 nmol/kg, time 0.291667 days) was 3.212 mM, the Average blood glucose (Sprague-Dawley rats; dose 300 nmol/kg, time 0.3336 days) was 3.494 mM and the Average blood glucose (Sprague-Dawley rats; dose 300 nmol/kg, time 1 day) was 2.58 mM. It also gave an Average blood glucose (Sprague-Dawley rats; dose 300 nmol/kg, time 2 days) of 2.118 mM, an Average blood glucose (Sprague-Dawley rats; dose 300 nmol/kg, time 3 days) of 2.074 mM and an Average blood glucose (Sprague-Dawley rats; dose 300 nmol/kg, time 4 days) of 2.37 mM. The Average blood glucose (Sprague-Dawley rats; dose 300 nmol/kg, time 5 days) was 2.478 mM, the Average blood glucose (Sprague-Dawley rats; dose 300 nmol/kg, time 6 days) was 4.534 mM and the Average blood glucose (Sprague-Dawley rats; dose 300 nmol/kg, time 7 days) was 5.588 mM. The Average blood glucose (Sprague-Dawley rats; dose 300 nmol/kg, time 8 days) was 6.552 mM, the Average blood glucose (Sprague-Dawley rats; dose 300 nmol/kg, time 9 days) was 5.644 mM and the Average blood glucose (Sprague-Dawley rats; dose 300 nmol/kg, time 10 days) was 5.788 mM. The “Lipogenesis in rat adipocytes [Potency (%)] Mean Value” (isolated rat adipocytes) was 0.95%.
For “A14E, B(−78K^), B(−77P), B(−1)(GQAP)19, B25H, B29R, desB30 human insulin/(227A, 234A, 235K, 297E, 315Q, 384Q, des447 hIgG4-Fc(228-447))4-[bis[2-[(2-acetyl)amino]ethyl]amino]-4-oxo-butanoyl Conjugate [Example 5.18]”, the “Insulin receptor affinity [IC50 relative to HI (%)] Mean Value” (insulin receptor A) was 2.78%, the “PK rat iv [T½ (h)] Mean Value” [1] was 24.9 h and the “PK rat sc [T½ (h)] Mean Value” [1] was 28.0 h. The “Lipogenesis in rat adipocytes [Potency (%)] Mean Value” (isolated rat adipocytes) was 0.87%.
With “A14E, B(−78K^), B(−77P), B(−1)(GQAPGQAPGQEP)6-GQAP, B3Q, B25H, B29R, desB30 human insulin/(227A, 234A, 235K hIgG4-Fc(228-447))4-[bis[2-[(2-acetyl)amino]ethyl]amino]-4-oxo-butanoyl Conjugate [Example 5.3]” the “Insulin receptor affinity [IC50 relative to HI (%)] Mean Value” (insulin receptor A) was 2.57%, the “PK rat iv [T½ (h)] Mean Value” [1] was 35.6 h and the “PK rat sc [T½ (h)] Mean Value” [1] was 33.1 h. For the same substance, the “Lipogenesis in rat adipocytes [Potency (%)] Mean Value” (isolated rat adipocytes) was 0.55%.
With “A14E, B(−78K^), B(−77P), B(−1)(GQEP)19, B25H, B29R, desB30 human insulin/(227A, 234A, 235K hIgG4-Fc(228-447))4-[bis[2-[(2-acetyl)amino]ethyl]amino]-4-oxo-butanoyl Conjugate [Example 5.4]” the “Insulin receptor affinity [IC50 relative to HI (%)] Mean Value” (insulin receptor A) was 2.14%, the “PK rat iv [T½ (h)] Mean Value” [1] was 26.4 h and the “PK rat sc [T½ (h)] Mean Value” [1] was 32.2 h. For the same substance, the “Lipogenesis in rat adipocytes [Potency (%)] Mean Value” (isolated rat adipocytes) was 0.36%.
With “A14E, B(−78K^), B(−77P), B(−1)(GQEP)19, B25H, B29R, desB30 human insulin/(227A, 234A, 235K, 297E, 315Q, 384Q, des447 hIgG4-Fc(228-447))4-[bis[2-[(2-acetyl)amino]ethyl]amino]-4-oxo-butanoyl Conjugate [Example 5.11]” the “Insulin receptor affinity [IC50 relative to HI (%)] Mean Value” (insulin receptor A) was 1.72%, the “PK rat iv [T½ (h)] Mean Value” [1] was 30.7 h and the “PK rat sc [T½ (h)] Mean Value” [1] was 33.1 h. The “Lipogenesis in rat adipocytes [Potency (%)] Mean Value” (isolated rat adipocytes) was 0.39%.
